Data taken from US20240122974A1, “TREATMENT OF MYOPIA” (University of Utah Research Foundation, priority 2021, published 2024).
Where two headings read alike, the source gives them in different places.

What was measured:
[1] = system: sclera of guinea pig pups; details: 0.08 mg/mL copper perchlorate hexahydrate eye drops twice a day, 6-8 weeks, n=5; untreated sclera 3.9×10^−4; p=0.036
Description: Lysyl oxidase converts lysine to allysine, and conjugates it to lysine or hydroxylysine spontaneously, becoming lysinonorleucine (LNL), an established biomarker of collagen crosslinking. […] After 6 weeks the scleras were dissected and analyzed for LNL content using mass spectroscopy (LC-MS). Semi-quantitative mass spectral analysis was performed using a Sciex 6500 Q-Trap (Sciex, Framingham, MA).

lysyl oxidase (LOX) [2] = target: T1, lysyl oxidase (LOX) (Homo sapiens, UniProt P28300)
Description: To examine LOX activity in normal corneal cells with copper perchlorate and to compare activity with copper sulfate, cultured corneal stroma cells from normal corneas (n=3 each) in 10% fetal bovine serum (FBS) DMEM were either exposed to copper sulfate or copper perchlorate in BSS then filtered through a 0.25 μm filter. Conditioned culture medium underwent a peroxidase-coupled fluorometric activity assay for LOX using Amplex red. As a parallel assay, we added 500 uM aminopropionitrile (BAPN) which can diminish LOX activity completely. The fluorescence of oxidized Amplex red was recorded every 10 minutes using fluorescence plate reader. After subtracting the background fluorescence, the fluorescence intensity was plotted against the incubation time (FIG. 1).
Target sequence in this assay (P28300 169-417): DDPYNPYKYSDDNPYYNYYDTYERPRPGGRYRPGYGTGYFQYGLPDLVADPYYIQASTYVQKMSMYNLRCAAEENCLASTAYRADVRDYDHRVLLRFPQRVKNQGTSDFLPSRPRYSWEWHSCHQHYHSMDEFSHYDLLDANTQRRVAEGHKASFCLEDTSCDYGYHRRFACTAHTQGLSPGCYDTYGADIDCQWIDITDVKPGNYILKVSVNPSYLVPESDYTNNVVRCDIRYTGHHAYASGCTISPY

[3] = system: sclera of guinea pig pups; details: 0.08 mg/mL copper perchlorate hexahydrate eye drops twice a day, 8 weeks, n=3, vs untreated sclera, FIG. 3
Description: After eight weeks the sclera was dissected for creep compliance testing. Compliance was tested using an Instrong 5943 Mechanical Testing system with custom grips and a 5 N Futek load cell. Each of the six specimens were loaded to 0.005 kgf, corresponding to an equivalent pressure of 12.0-16.6 mmHg depending on specimen dimensions.

[4] = system: spontaneous myopic albino guinea pigs; assay: Spontaneous myopic progression in albino guinea pig pups; details: 0.22 mg/mL twice a day
Description: Spontaneous myopic albino guinea pigs were used as a model of pediatric myopia. […] Pups of albino guinea pigs were used as a pediatric model starting at age 4-7 days. In this group of n=5 pups, all left eyes were untreated (internal control). The other eye (right eye) was treated with 0.22 mg/mL copper perchlorate hexahydrate twice a day. Treatment started at approximately 1 week of age and continued for approximately 2 months. Measurements were taken between 5-7 days of age (baseline-no treatment) and then biweekly. We examined refractive error by streak retinoscopy after dilation, and axial length by Lenstar biometry (Haag-Streit). Cycloplegic refractive error and cornea inflammation was measured by a masked pediatric ophthalmologist.

[5] = system: genetic model of guinea pig myopia; assay: Genetic model of guinea pig myopia, 0.35 mg/ml eye drops twice a day
Description: Copper perchlorate was administered at 0.35 mg/ml to guinea pigs.

[6] = system: genetic model of guinea pig myopia; details: 0.22 mg/ml once a day
Description: 0.22 mg/ml copper perchlorate was administered once a day for approximately 3 months to right eye only. The cycloplegic refraction was measured biweekly by a masked pediatric ophthalmologist.

lysyl oxidase (LOX) [7] = target: T1, lysyl oxidase (LOX); details: normal sclera cells, FIG. 8
Target sequence in this assay (P28300 169-417, species assumed): as the sequence (P28300 169-417) above

Compound: O.O.O.O.O.O.[Cu+2].[O-][Cl+3]([O-])([O-])[O-].[O-][Cl+3]([O-])([O-])[O-] [copper perchlorate, copper (II) perchlorate hexahydrate]
- LNL response in treated sclera [1]: 0.00069 µg/mg
- LOX activity compared with the same molar concentration of copper sulfate (lysyl oxidase (LOX) [2]; concentrations as low as 100 nM): increased LOX activity more than the same molar concentration of copper sulfate
- induction of LOX activity compared with copper sulfate (lysyl oxidase (LOX) [2]; keratoconic human cornea stroma cells, concentration as low as 100 nM, FIG. 1B): higher induction of LOX activity than copper sulfate
- LOX enzyme activity (lysyl oxidase (LOX) [2]; normal corneal stroma cells, conditioned culture medium, FIG. 1a): dramatically increased LOX enzyme activity in a dose response manner
- scleral creep compliance [3]: decreased creep compliance
- axial length, treated eye (OD) compared to control eye (OS) ([4]; FIG. 5): trend of reducing
- vitreous chamber depth, treated eye (OD) compared to control eye (OS) ([4]; FIG. 5): trend of reducing
- clinical observations of toxicity or discoloration of corneas ([4]; about 2 months, topical to right eye): no toxicity or discoloration
- slowing of myopic progression in refractive error ([4]; within 9 weeks of treatment, treated vs control eye, n=5): 48%
- myopia at the end of the experiment, treated versus control eyes ([5]; n=5): significantly less myopic
- axial elongation, treated versus control eye ([5]; n=5, p<0.05): significantly reduced
- vitreous chamber depth elongation, treated versus control eye ([5]; n=5, p<0.05): significantly reduced
- more myopia developed in untreated left eyes than in treated right eyes (change from baseline) ([6]; Day 81): 2.27 diopters
- slope analysis: refractive error decrease, untreated left eye more than treated right eye ([6]; about 3 months, right eye only, p=0.0189): 0.027(sd=0.011) per day
- LOX enzyme activity (lysyl oxidase (LOX) [7]): dramatically increased LOX enzyme activity in a dose response manner
